Results: ChEMBL document CHEMBL3045761, “One pot synthesis of some novel coumarins containing 5-(substituted-2-hydroxybenzoyl) pyridine as a new class of antimicrobial and antituberculosis agents” (2013)
≈ marks a conversion by molar mass, not a printed value.

How the values were obtained:
Format in all cases: functional
Candida albicans = assay: Antifungal activity against Candida albicans MTCC 227 after overnight incubation by broth microdilution method
Aspergillus niger = assay: Antifungal activity against Aspergillus niger MTCC 282 after overnight incubation by broth microdilution method
Bacillus subtilis = assay: Antibacterial activity against Bacillus subtilis MTCC 441 after overnight incubation by broth microdilution method
Escherichia coli = assay: Antibacterial activity against Escherichia coli MTCC 443 after overnight incubation by broth microdilution method
Salmonella typhi = assay: Antibacterial activity against Salmonella enterica subsp. enterica serovar Typhi MTCC 98 after overnight incubation by broth microdilution method
Staphylococcus aureus = assay: Antibacterial activity against Staphylococcus aureus MTCC 96 after overnight incubation by broth microdilution method
[1] = system: Mycobacterium tuberculosis; assay: Antitubercular activity against Mycobacterium tuberculosis H37Rv after 21 days by Lowenstein-Jensen method; conditions: 504 h

Row | Compound | MIC99 (Candida albicans) [µg/mL] | MIC99 (Aspergillus niger) [µg/mL] | MIC99 (Bacillus subtilis) [µg/mL] | MIC99 (Escherichia coli) [µg/mL] | MIC99 (Salmonella typhi) [µg/mL] | MIC99 (Staphylococcus aureus) [µg/mL] | MIC90 [1] [µg/mL]
1 | NYSTATIN | 100 | 100 |  |  |  |  | 
2 | Cc1ccc(O)c(C(=O)c2ccc(-c3cc4c(ccc5ccccc54)oc3=O)nc2)c1 | 500 (≈ 1230 µM) | 1000 (≈ 2450 µM) | 100 (≈ 245 µM) | 200 (≈ 491 µM) | 250 (≈ 614 µM) | 125 (≈ 307 µM) | 1000 (≈ 2450 µM)
3 | COc1cccc2cc(-c3ccc(C(=O)c4cc(Cl)ccc4O)cn3)c(=O)oc12 | > 1000 | > 1000 | 200 (≈ 490 µM) | 125 (≈ 307 µM) | 200 (≈ 490 µM) | 200 (≈ 490 µM) | 500 (≈ 1230 µM)
4 | O=C(c1ccc(-c2cc3ccccc3oc2=O)nc1)c1ccccc1O | 500 (≈ 1460 µM) | 1000 (≈ 2910 µM) | 250 (≈ 728 µM) | 100 (≈ 291 µM) | 125 (≈ 364 µM) | 200 (≈ 583 µM) | 1000 (≈ 2910 µM)
5 | COC1=CC(=O)C[C@@H](C)[C@]12Oc1c(Cl)c(OC)cc(OC)c1C2=O [GRISEOFULVIN] | 500 (≈ 1420 µM) | 100 (≈ 283 µM) |  |  |  |  | 
6 | O=C(c1ccc(-c2cc3cc(Br)ccc3oc2=O)nc1)c1cc(Cl)ccc1O | 100 (≈ 219 µM) | > 1000 | 100 (≈ 219 µM) | 62.5 (≈ 137 µM) | 100 (≈ 219 µM) | 62.5 (≈ 137 µM) | 1000 (≈ 2190 µM)
7 | COc1cccc2cc(-c3ccc(C(=O)c4cc(C)ccc4O)cn3)c(=O)oc12 | 1000 (≈ 2580 µM) | 500 (≈ 1290 µM) | 250 (≈ 645 µM) | 100 (≈ 258 µM) | 100 (≈ 258 µM) | 250 (≈ 645 µM) | 62.5 (≈ 161 µM)
8 | O=C(c1ccc(-c2cc3cc(Br)ccc3oc2=O)nc1)c1ccccc1O | 200 (≈ 474 µM) | > 1000 | 100 (≈ 237 µM) | 50 (≈ 118 µM) | 125 (≈ 296 µM) | 200 (≈ 474 µM) | 250 (≈ 592 µM)
9 | Cc1ccc(O)c(C(=O)c2ccc(-c3cc4cc(Br)ccc4oc3=O)nc2)c1 | 500 (≈ 1150 µM) | 500 (≈ 1150 µM) | 500 (≈ 1150 µM) | 100 (≈ 229 µM) | 100 (≈ 229 µM) | 500 (≈ 1150 µM) | 100 (≈ 229 µM)
10 | Cc1ccc(O)c(C(=O)c2ccc(-c3cc4ccccc4oc3=O)nc2)c1 | 250 (≈ 700 µM) | 1000 (≈ 2800 µM) | 200 (≈ 560 µM) | 250 (≈ 700 µM) | 200 (≈ 560 µM) | 100 (≈ 280 µM) | 100 (≈ 280 µM)
11 | O=C(c1ccc(-c2cc3c(ccc4ccccc43)oc2=O)nc1)c1ccccc1O | 250 (≈ 635 µM) | 500 (≈ 1270 µM) | 100 (≈ 254 µM) | 200 (≈ 508 µM) | 250 (≈ 635 µM) | 100 (≈ 254 µM) | 250 (≈ 635 µM)
12 | CC1(C)S[C@@H]2[C@H](NC(=O)[C@H](N)c3ccccc3)C(=O)N2[C@H]1C(=O)O [AMPICILLIN] |  |  | 250 (≈ 715 µM) | 100 (≈ 286 µM) | 100 (≈ 286 µM) | 250 (≈ 715 µM) | 
13 | O=C(c1ccc(-c2cc3ccccc3oc2=O)nc1)c1cc(Cl)ccc1O | 500 (≈ 1320 µM) | > 1000 | 200 (≈ 529 µM) | 250 (≈ 662 µM) | 250 (≈ 662 µM) | 250 (≈ 662 µM) | 250 (≈ 662 µM)
14 | COc1cccc2cc(-c3ccc(C(=O)c4ccccc4O)cn3)c(=O)oc12 | 1000 (≈ 2680 µM) | > 1000 | 200 (≈ 536 µM) | 200 (≈ 536 µM) | 250 (≈ 670 µM) | 500 (≈ 1340 µM) | 500 (≈ 1340 µM)
15 | O=C(c1ccc(-c2cc3c(ccc4ccccc43)oc2=O)nc1)c1cc(Cl)ccc1O | 1000 (≈ 2340 µM) | 100 (≈ 234 µM) | 125 (≈ 292 µM) | 250 (≈ 584 µM) | 250 (≈ 584 µM) | 100 (≈ 234 µM) | 500 (≈ 1170 µM)
